The values below are quoted from earlier work in the CATMoS acute toxicity set (Mansouri et al. 2021).

SMILES strings stand for the structures. Values joined by “and” are separate entries in the source; they are usually repeats but may differ in a detail not shown here. Identical values can stand only once.

The nature of the data set: rat acute oral toxicity. Particulars: in vivo. The text has this:
[…]The data set underlying the modeling effort for this project was initially compiled by NICEATM and U.S. EPA’s CCTE. Briefly, LD50 data were collected from rat acute oral systemic toxicity tests, including limit tests, ranges/confidence intervals, and discrete LD50 values. The full data set included 21,200 LD50 entries for 15,688 substances. […] Data were reviewed to ensure that LD50 values with obvious errors in the extracted data such as unit conversion errors (e.g., comma and decimal separator misplacements) were either fixed or removed. After this review, 16,209 LD50 values remained. Many of the chemicals represented had multiple LD50 entries, requiring that a single representative value per Chemical Abstracts Service Registry Number (CASRN) identifier be defined to facilitate modeling efforts. Based on ATWG feedback and to define the representative LD50 as a protective value while accounting for the distribution across multiple LD50s, the median of the lowest quartile was computed using only discrete LD50 values (omitting limit test data and range and confidence interval data). A detailed summary of the data compilation is available online on the NICEATM webpage dedicated to the collaborative modeling project (NTP 2020).
[…][…] For categorical designations, limit test and range/confidence interval LD50 data were integrated wherever possible. As such, the number of chemicals with end point values/calls varies across the modeling end points (Table 3) based on whether chemicals had representative LD50 values and/or other data. If a chemical had both, the representative value was used to determine categorical calls rather than limit test data. Some data were useable only for certain end points and categories depending on the thresholds. For example, ranges that spanned multiple hazard categories were considered only for the binary (very toxic/nontoxic) end points and omitted from rendering a determination for hazard category assignment.
[…]The final data set comprising 11,992 chemicals was split into training and evaluation sets […], respectively. This process was performed semirandomly by ordering chemicals based on the five end points (categorical and continuous LD50 values) and partitioning every fourth record into the evaluation set accordingly. This approach was taken to ensure an equivalent distribution of the LD50 values and the different hazard categories between the training and the evaluation sets without supervised sampling of the chemicals based on structures (Figure 1A). The sources of the chemical structures were also kept equivalent between the two sets, with chemical structures obtained from DSSTox, being the highest quality, representing over 75% of each set (Figure 1B).
As to `CC[N+](C)(C)CCC(C(N)=O)(c1ccccc1)c1ccccc1`, the median lethal dose (LD50) – broadly, the dose at which mortality reaches 50% – was 1350 mg/kg.
Turning to `O=c1[nH]c2ccccc2n1CCCN1CCC(n2c(=O)[nH]c3cc(Cl)ccc32)CC1`, the LD50 was 5240 mg/kg.
For the compound `COc1ccc2c(c1)C(N1CCN(C)CC1)=Cc1ccccc1O2`, the LD50 was 822 mg/kg.
With `COC(C)OC`, the 50% lethal dose (LD50) was 6500 mg/kg.
Consider `CCOC(=O)[C@H](CCc1ccccc1)N[C@@H](C)C(=O)N1Cc2ccccc2C[C@H]1C(=O)O`, for which the median lethal dose (LD50) is 3540 mg/kg.
With `CC1C(=NOC(=O)N(C)SC(Cl)(Cl)Cl)SCC(=O)N1C` (configuration not stated), the LD50 is 3.54 mg/kg.
In the case of `CC(=O)C1(O)CCC(c2ccccc2)CC1` (configuration not stated), the LD50 is 8000 mg/kg.
On to `CCCCCOC(=O)CCC`, for which the LD50 was 12200 mg/kg.
For `CC(C)N1C=CC(=C2C(=O)c3ccccc3C2=O)C=C1`, the LD50 was 1450 mg/kg.
For `Cc1ccc(CN(C)N=O)cc1`, the median lethal dose (LD50) is 400 mg/kg.
For the compound `CCCN(CCC)C(=O)CN(CC)P(=S)(OCC)OCC`, the LD50 was 2080 mg/kg.
Take `COC(=O)c1ccccc1C(=O)c1ccc(OCCN2CCCCC2)cc1`: the LD50 is 3600 mg/kg.
Regarding `CNc1nc(Cl)c(SC)c(N2CCN(C)CC2)n1`, the LD50 was 800 mg/kg.
Consider `CSC#N`, for which the LD50 is 60 mg/kg.
Consider `CN(N=O)C(=O)C(=O)N(C)N=O`, for which the LD50 was 96 mg/kg.
Regarding `CC(C)/N=c1/cc2n(-c3ccc(Cl)cc3)c3ccccc3nc-2cc1Nc1ccc(Cl)cc1`, the LD50 is 8400 mg/kg.
Regarding `CC(C)N1CCCC1=O`, the LD50 is 2900 mg/kg.
Consider `Cc1c(N(C)C)c(=O)n(-c2ccccc2)n1C`, for which the LD50 is 285 mg/kg.
Consider `C=CC(O)C#N` (configuration not stated), for which the LD50 is 65 mg/kg.
Take `CCCOC(C(=O)OC1CCN(C)CC1)(c1ccccc1)c1ccccc1`: the LD50 was 2250 mg/kg.
With `CC(C)(N)Cc1ccc(Cl)cc1`, the LD50 was 150 mg/kg and 250 mg/kg.
Take `O=C1C(=NNc2ccccc2)C(S(=O)(=O)O)=Cc2cc(S(=O)(=O)O)cc(Nc3nc(Cl)nc(Cl)n3)c21`: the LD50 is 7460 mg/kg.
As to `CCOCCOCCOc1ccccc1`, the median lethal dose (LD50) was 2140 mg/kg.
As for `FC(F)(F)c1nc2c(Cl)cc(Br)cc2[nH]1`, the LD50 was 6.4 mg/kg.
Take `O=C(Cl)c1ccc(Oc2ccc(C(=O)Cl)cc2)cc1`: the 50% lethal dose (LD50) is 8700 mg/kg.
Turning to `Cc1cc(-n2c(C)nc3ccccc3c2=O)n(-c2ccccc2)n1`, the LD50 was 1800 mg/kg.
For the compound `C=C(OP(=O)(OCC)OCC)P(=O)(OC)OC`, the LD50 was 173 mg/kg.
Take `CCn1cc(C(=O)O)c(=O)c2cc(F)c(N3CCNC(C)C3)c(F)c21` (configuration not stated): the LD50 is 3800 mg/kg and 1560 mg/kg.
`Clc1sc(Cl)c(Cl)c1Cl`: the LD50 is 70 mg/kg.
Turning to `NCC(CC(=O)O)c1ccc(Cl)cc1` (configuration not stated), the LD50 is 145 mg/kg.
Turning to `Fc1ccc(Br)cc1`, the LD50 is 2700 mg/kg.
On to `C=CC(=O)OCCCl`, for which the 50% lethal dose (LD50) is 180 mg/kg.
`C[n+]1ccc(-c2ccccc2)cc1`: the LD50 was 35 mg/kg.
On to `CCOC(C)=O`, for which the 50% lethal dose (LD50) was 5620 mg/kg.
Consider `Cn1c(=O)c2c(ncn2CCNCc2cccnc2)n(C)c1=O`, for which the LD50 is 3700 mg/kg.
As for `CN1CCC23CCCCC2C1Cc1ccc(O)cc13` (configuration not stated), the median lethal dose (LD50) is 350 mg/kg.
With `C=CCN(C1=NCCN1)c1c(Cl)cccc1Cl`, the LD50 is 500 mg/kg and 233 mg/kg.
Turning to `Cc1cc[nH]n1`, the LD50 was 710 mg/kg.
On to `CCCCC(CC)OCCO` (configuration not stated), for which the LD50 is 2280 mg/kg.
For `Oc1ccc(O)c2[nH]c(C(F)(F)F)nc12`, the LD50 is 29 mg/kg.
In the case of `COc1ccc(S(=O)(=O)Nc2nnc(C(C)(C)C)s2)cc1`, the LD50 is 1150 mg/kg.
Take `COC(=O)C=C1CCCC1`: the LD50 was 3360 mg/kg.
For `CCN(N=O)C(C)OC` (configuration not stated), the LD50 is 1000 mg/kg.
Consider `CC(CCc1ccccc1)NCC(O)c1ccc(O)c(C(N)=O)c1` (configuration not stated), for which the median lethal dose (LD50) was 2110 mg/kg.
As to `N=C(N)SCc1ccc([N+](=O)[O-])cc1`, the LD50 is 300 mg/kg.
`BrC=Cc1ccccc1`: the LD50 was 1250 mg/kg.
As for `O=c1[nH]nc2n1-c1cc([N+](=O)[O-])cc([N+](=O)[O-])c1OC2`, the median lethal dose (LD50) was 3690 mg/kg.
With `COc1ccc2c(c1OC)C(=O)O[C@@H]2[C@H]1c2c(cc3c(c2OC)OCO3)CCN1C`, the 50% lethal dose (LD50) is 1520 mg/kg.
With `Cc1cc(=O)oc2cc(OP(=O)(OCCCl)OCCCl)ccc12`, the LD50 was 141 mg/kg.
For the compound `CCCCC(CC)COC(=O)c1ccccc1C(=O)OCc1ccccc1` (configuration not stated), the LD50 was 60000 mg/kg.
On to `CN1CCCC(n2nc(Cc3ccc(Cl)cc3)c3ccccc3c2=O)CC1` (configuration not stated), for which the median lethal dose (LD50) is 310 mg/kg and 580 mg/kg.
As to `Clc1ccc(C(Cl)(Cl)c2ccc(Cl)cc2)cc1`, the LD50 was 168 mg/kg.
For `CC[N+](CC)(CC)Cc1ccccc1`, the LD50 is 2220 mg/kg.
As to `Cc1c(C(=O)O)nnn1-c1ccccc1`, the median lethal dose (LD50) was 1500 mg/kg.
On to `CC(C=CC=C(C)C=CC(=O)C1(C)CC(O)CC1(C)C)=CC=CC=C(C)C=CC=C(C)C=CC1=C(C)CC(O)CC1(C)C` (configuration not stated), for which the LD50 was 11200 mg/kg.
`CCCCCCCCCCCCc1ccc(C)c(C[N+](C)(C)C)c1`: the LD50 was 389 mg/kg.
Turning to `CCN1CCCC1CNC(=O)c1cc(Cl)cc(Cl)c1OCc1ccccc1` (configuration not stated), the LD50 is 576 mg/kg.
On to `CCCOP(=S)(OCCC)Oc1cnn(C)c(=O)c1OC`, for which the LD50 was 26 mg/kg.
Turning to `COc1cc2c(cc1OC)[C@@H]1C(=O)c3ccc4c(c3O[C@@H]1CO2)C[C@H](C(C)C)O4`, the 50% lethal dose (LD50) was 2500 mg/kg.
For the compound `CC(=O)[C@H]1CC[C@H]2[C@@H]3CC[C@H]4C[C@H](O)CC[C@]4(C)[C@H]3C(=O)C[C@]12C`, the median lethal dose (LD50) is 297 mg/kg.
As for `CCO[SiH](Cl)OCC`, the LD50 is 6300 mg/kg.
As for `O=S(=O)(NC(O)=NC1CCCCC1)c1ccc(Cl)cc1`, the LD50 was 1520 mg/kg.
As for `CC12CCC(CC1=O)C2(C)C=O` (configuration not stated), the 50% lethal dose (LD50) was 3100 mg/kg.
Take `CC(=O)Nc1ccc(/N=N/c2c(S(=O)(=O)O)cc3cc(S(=O)(=O)O)cc(NC(C)=O)c3c2O)cc1`: the LD50 was 23200 mg/kg.
For the compound `Cc1ncc(COP(=O)(O)O)c(C=O)c1O`, the LD50 was 5900 mg/kg.
Consider `CCSC(C)C1(CC)C(=O)NC(=S)NC1=O` (configuration not stated), for which the LD50 is 772 mg/kg.
For the compound `CC(=O)C=C1CCC2C13CCC(C)C(C3)C2(C)C` (configuration not stated), the LD50 is 5200 mg/kg.
Take `COc1cc(N)c2c(c1N)C(=O)c1ccccc1C2=O`: the LD50 is 891 mg/kg.
For `COc1cccc(O)c1`, the LD50 is 597 mg/kg.
Take `O=C(O)c1snc(Cl)c1Cl`: the LD50 was 1200 mg/kg.
Turning to `C=C(C)c1ccccc1`, the 50% lethal dose (LD50) was 4900 mg/kg.
In the case of `COCC(=O)O`, the LD50 was 1000 mg/kg.
As for `CC[N+](C)(C)CCO`, the LD50 is 6930 mg/kg.
In the case of `FC(F)(F)c1nc2c(Br)cccc2[nH]1`, the LD50 is 28 mg/kg.
In the case of `CCCCC(CC)C(=O)OCCOCCOCCOCCOC(=O)C(CC)CCCC` (configuration not stated), the median lethal dose (LD50) was 18000 mg/kg.
With `NC(=O)OC[C@H](O)[C@@H](O)[C@H](N)C(=O)N[C@@H](C(=O)O)[C@H]1O[C@@H](n2cc(CO)c(=O)[nH]c2=O)[C@H](O)[C@@H]1O`, the LD50 was 14700 mg/kg.
Consider `CCCCN(C)N=O`, for which the LD50 was 130 mg/kg.
As for `Cc1cc(C(=O)NNCc2ccccc2)no1`, the LD50 was 280 mg/kg.
As to `CCCC(=O)Oc1ccc(OC)cc1`, the LD50 is 3400 mg/kg.
`CSCCC(OC(C)=O)C(=O)O` (configuration not stated): the LD50 is 2340 mg/kg.
In the case of `O=C(C=Cc1ccccn1)OCCN1CCN(c2ccc(Cl)cc2)CC1`, the LD50 is 478 mg/kg.
Regarding `O=C1C=CCCC1`, the LD50 was 220 mg/kg.
Turning to `CC(C)NCC(O)COc1cccc2c1OCC(O)C2` (configuration not stated), the LD50 was 1840 mg/kg.
Turning to `CNCCc1ccccn1`, the LD50 was 3030 mg/kg and 6110 mg/kg.
`CCC(Cl)(Cl)Cl`: the LD50 was 7460 mg/kg.
For the compound `CNC(=O)OCc1cccc(COC(=O)NC)n1`, the LD50 is 1230 mg/kg.
With `Cc1ccc(Cc2ccc(C)cc2)cc1`, the LD50 was 3800 mg/kg and 1700 mg/kg.
